From patent US20250042918A1, “COMPOUNDS” (Fundación Del Sector Públlco Estatal Centro Nacional De …, priority 2021, published 2025)

System: Naïve CD4+ T cells, Th1 cells
Experiment: CD4+ T cell differentiation under Th1 conditions (IFNγ, ELISA and FACS)
Assay type: cell-based, mice
Method: Naïve CD4^+ T cells were purified from mice spleens and lymph nodes using positive selection by magnetic beads (CD4 L3T4 Kit, Miltenyi Biotec, UK). The purified T cells were activated by plate-bound αCD3ε (1 μg/ml; 2C11) and αCD28 (3 μg/ml; 37.51) in the presence or absence of the compound of Example 1 or Cyclosporin A (Sigma Aldrich), and cultured for 72 hrs under Th1 conditions (IL-12 [20 ng/ml]+αIL-4 (11B1) [10 μg/ml]), 72 hrs under Th17 conditions (αIFNγ [10 μg/ml]+αIL-4 [5 μg/ml]+IL-6 [[…]]+TGFβ(5 ng/ml)), and 96 hrs under iTreg conditions (TGFβ (5 ng/ml)) at 37° C.
ELISA kits for mouse IFNγ and IL-17a were purchased from eBioscience (Thermo Fisher, UK) and performed in accordance to manufacturer's instructions using Corning® High Binding ELISA plates (Merck, CLS9018). All ELISAs were analysed using a Synergy MX microplate reader (BioTek).
Intracellular protein expression was evaluated by first restimulating the cells with phorbol-12-myristate 13-acetate (PMA)(10 ng/ml) (Sigma Aldrich), ionomycin (1 μg/ml) (Sigma Aldrich) and Brefeldin A (5 μg/ml) (eBioscience) for 4-6 hours at 37° C. […] Fc block (93) and all fluorescence dye labelled antibodies used αCD4 (GK1.5), αIFNγ (XMG1.2), αIL-17a (17B7), αFOXP3 (NRRF-30; FJK-16S) were purchased from eBiosciences (Thermo Fisher, UK). […]

In the case of `CN1CCOc2c1c(N[C@H]1CC[C@@](C)(O)CC1)nn1c(-c3cccc(OC(F)(F)F)c3)nnc21` [Example 1, 1-Methyl-4-[6-methyl-3-(3-trifluoromethoxy-phenyl)-7,8-dihydro-6H-9-oxa-1,2,3a,4,6-pentaaza-cyclopenta[a]naphthalen-5-ylamino]-cyclohexanol], the “pro-inflammatory Th1 responses” value (12.5 nM, 72 hrs Th1 conditions) was “significant suppression” and the “Differentiation of Th1 cells in vitro as determined by the secretion of IFNγ” value (across a range of concentrations, ELISA and FACS) was “inhibited”.
